Experimental data reported in ChEMBL document CHEMBL3091347, “Comparison of Multiple Linear Regressions and Neural Networks based QSAR models for the design of new antitubercular compounds” (Eur J Med Chem, 2013).
≈ marks a conversion by molar mass, not a printed value.

Key:
[1] = system: Mycobacterium tuberculosis; test: Antitubercular activity against Mycobacterium tuberculosis H37Rv; format: functional; conditions: for MIC: Mycobacterium tuberculosis, H37Rv
[2] = Lipophilicity, log P of the compound; conditions: octanol/water, logP
[3] = system: Mycobacterium tuberculosis; test: Antitubercular activity against Mycobacterium tuberculosis; format: functional; conditions: for MIC: Mycobacterium tuberculosis

Row | SMILES | log(1/MIC) [1] | MIC [1] [µg/mL] | logP [2] | log(1/MIC) [3] | MIC [3] [µg/mL]
1 | CCc1cc(C(=O)NN)ccn1 | -0.5423 | 3.49 (≈ 21.1 µM) | -1.14 | – | –
2 | CCN(CC)Cc1cccc(/C(C)=N/NC(=O)c2ccncc2)c1O | 0.09061 | 0.81 (≈ 2.38 µM) | 2.09 | – | –
3 | Cc1cccc(OC/C(N)=N/NC(=O)c2ccncc2)c1 | -0.494 | 3.12 (≈ 11 µM) | 1.27 | – | –
4 | C/C(=N\NC(=O)c1ccncc1)c1cccc(CN2CCN(c3ccccn3)CC2)c1O | 0.3979 | 0.4 (≈ 0.929 µM) | 2.59 | – | –
5 | CC(=O)NCc1cc(C(=O)NN)ccn1 | -1.704 | 50.6 (≈ 243 µM) | -3.75 | – | –
6 | C/C(=N\NC(=O)c1ccncc1)c1cccc(CN2CCOCC2)c1O | 0.09122 | 0.81 (≈ 2.29 µM) | 1.61 | – | –
7 | C/C(=N\NC(=O)c1ccncc1)c1cccc(CN2CCNCC2)c1O | 0.6866 | 0.21 (≈ 0.594 µM) | 1.05 | – | –
8 | C/C(=N\NC(=O)c1ccncc1)c1cccc(CN(c2ccccc2)c2ccccc2)c1O | -0.2064 | 1.61 (≈ 3.69 µM) | 4.12 | – | –
9 | C/C(=N\NC(=O)c1ccncc1)c1cccc(CN(C)C)c1O | 0.09006 | 0.81 (≈ 2.59 µM) | 1.19 | – | –
10 | C=Cc1cc(C(=O)NN)ccn1 | -0.7567 | 5.71 (≈ 35 µM) | -1.69 | – | –
11 | Cc1ccccc1OC/C(N)=N/NC(=O)c1ccncc1 | -1.097 | 12.5 (≈ 44 µM) | 1.27 | – | –
12 | C/C(=N\NC(=O)c1ccncc1)c1cccc(CN2CCN(c3cc4c(cc3F)c(=O)c(C(=O)O)cn4C3CC3)CC2)c1O | 0.09913 | 0.8 (≈ 1.34 µM) | 4.2 | – | –
13 | CCCCCCCCC(=O)NNC(=O)c1ccncc1 | 1.602 | 0.03 (≈ 0.108 µM) | 2.22 | – | –
14 | Cc1ccc(OC/C(N)=N/NC(=O)c2ccncc2)cc1 | -0.796 | 6.25 (≈ 22 µM) | 1.27 | – | –
15 | N/N=C/C(CC(=O)c1ccncc1)C(=O)c1ccncc1 (stereo not given) | – | – | -2.83 | 0.82 | 0.15 (≈ 0.531 µM)
16 | C/C(=N\NC(=O)c1ccncc1)c1cccc(CN2CCN(c3ccc(F)cc3)CC2)c1O | 0.3963 | 0.4 (≈ 0.894 µM) | 3.68 | – | –
17 | C/C(=N\NC(=O)c1ccncc1)c1cccc(CN2CCCC2)c1O | -0.2108 | 1.62 (≈ 4.79 µM) | 1.99 | – | –
18 | CC(=O)NNC(=O)c1ccco1 | – | – | -1.26 | -2.78 | 600 (≈ 3570 µM)
19 | NNC(=O)c1cccs1 | – | – | -1.2 | -0.9 | 8 (≈ 56.3 µM)
20 | CCN(CC)c1ccc(/C=N/NC(=O)c2ccncc2)cc1 | – | – | 2.53 | 0.22 | 0.6 (≈ 2.02 µM)
21 | NNC(=O)c1ccnc(I)c1 | -1.825 | 66.8 (≈ 254 µM) | -1.2 | – | –
22 | CCC(CC)=NNC(=O)c1ccncc1 | – | – | -0.469 | 1.7 | 0.02 (≈ 0.0974 µM)
23 | CC(C)=NNC(=O)c1cccs1 | – | – | -0.404 | 0.35 | 0.45 (≈ 2.47 µM)
24 | NNC(=O)C1CCCO1 (stereo not given) | – | – | -2.12 | 0.52 | 0.3 (≈ 2.31 µM)
25 | NNC(=O)c1ccnc(-c2ccccc2)c1 | – | – | -0.634 | -1.03 | 10.7 (≈ 50 µM)
